{"source": "patent US5506213A", "about": "“Adminstration of 2'-halo-2'-deoxy adenosine to treat inflammatory bowel disease” (priority 1994, dated 1996)", "key": {"[1]": {"test_system": "antigen-induced arthritis", "test": "Antigen-induced arthritis in rabbits", "type": "in vivo", "conditions": "CdA 1 mg/kg, tepoxalin 25 mg/kg, naproxen 5 mg/kg", "experimental": "Antigen-induced arthritis in rabbits is an animal model of rheumatoid arthritis. In this model, the rabbits are sensitized to an antigen such as ovalbumin or methylated bovine serum albumin in an adjuvant. Several weeks later, the same antigen is injected directly into the joints of the animal. […] Pettipher et al., Br. J. Exp. Path., 69:113-122 (1988).\nRabbits with antigen-induced arthritis were treated with CdA (1 mg/kg), tepoxalin (25 mg/kg) or naproxen (5 mg/kg)."}, "[2]": {"test_system": "delayed-type hypersensitivity (DTH) response", "test": "Delayed-type hypersensitivity to ovalbumin in guinea pigs, oral and intraperitoneal treatment", "type": "in vivo, guinea pig", "conditions": "dexamethasone 5 mg/kg, CdA or CAFdA 1 mg/kg, 24 and 48 hours, p<0.01", "experimental": "(§1) Delayed-type hypersensitivity (DTH) is a cell-mediated immune response that typically takes longer than 12 hours to develop. In the guinea pig, a DTH reaction to an antigen can be established by first immunizing the animal with the antigen in an adjuvant such as Freund's complete adjuvant. Subsequent intradermal injection of the antigen causes no change for at least 10 hours, after which there is a gradual increase in erythema and swelling in response to antigen injection. This response peaks about at about 24 hours after challenge, then gradually subsides.\nHistologically, the inflammatory response is characterized by intense inundation of the site with mononuclear cells, of which about half are lymphocytes and the other half monocytes. DTH is therefore an indicator of a monocyte-mediated immune reaction.\nIn one study, guinea pigs were sensitized to ovalbumin in adjuvant. The animals were then treated either orally or intraperitoneally with saline (control), dexamethasone (5 mg/kg), CdA (1 mg/kg) or CAFdA (1 mg/kg). The animals were then injected with ovalbumin intradermally to elicit the DTH response. The mean area of the swelling size was measured for each animal (nine or ten animals were treated for each protocol)."}, "[3]": {"test_system": "delayed-type hypersensitivity (DTH) reaction", "test": "Delayed-type hypersensitivity to ovalbumin in guinea pigs, different dosages of CdA", "type": "in vivo, guinea pig", "conditions": "dexamethasone 5 mg/kg; 24 and 48 hours post-challenge; p<0.01", "experimental": "as §1\nIn another study, the effects of different dosages of CdA on the DTH reaction were examined. Guinea pigs sensitized to ovalbumin were treated with saline (control), dexamethasone (5 mg/kg), and CdA at 1 mg/kg or 0.1 mg/kg. Three days after treatment, the animals were challenged with ovalbumin intradermally. The areas of the skin lesions were measured at 6, 24, and 48 hours after challenge."}, "CEM, wild type": {"test_system": "CEM, wild type", "test": "Direct comparative cytotoxicity assay (Table II), CEM wild type", "type": "cell-based, human", "conditions": "CEM, wild type", "from_the_text": "(§2) The two compounds, CdA and CAFdA, were also compared for in vitro activity against another group of human cell lines in a direct comparative assay.\n(§3) ^1 Concentration that produced 50 percent reduction in all numbers\n(§4) ^2 CEM cells are T lymphoblasts; DHL9 cells are lymphoblasts."}, "[4]": {"test_system": "CEM, Increased 5'-nucleoside", "test": "Direct comparative cytotoxicity assay (Table II), CEM increased 5'-nucleoside", "type": "cell-based, human", "conditions": "CEM, Increased 5'-nucleoside", "from_the_text": "as §2, §3, §4"}, "DHL9, wild type": {"test_system": "DHL9, wild type", "test": "Direct comparative cytotoxicity assay (Table II), DHL9 wild type", "type": "cell-based, human", "conditions": "DHL9, wild type", "from_the_text": "as §2, §3, §4"}, "[5]": {"test_system": "DHL9, Increased ribonucleotide reduction", "test": "Direct comparative cytotoxicity assay (Table II), DHL9 increased ribonucleotide reduction", "type": "cell-based, human", "conditions": "DHL9, Increased ribonucleotide reduction", "from_the_text": "as §2, §3, §4"}, "[6]": {"test_system": "Peripheral blood lymphocytes", "test": "Direct comparative cytotoxicity assay (Table II), peripheral blood lymphocytes", "type": "cell-based, human", "conditions": "Peripheral blood lymphocytes", "from_the_text": "as §2, §3"}, "monocytes": {"test_system": "monocytes", "test": "Direct comparative cytotoxicity assay (Table II), monocytes", "type": "cell-based, human", "conditions": "Monocytes", "from_the_text": "as §2, §3"}, "T cell line CEM": {"test_system": "T cell line CEM", "test": "cells", "conditions": "Homo sapiens", "protocol": "(§5) Seven different cell lines were treated with varying concentrations of 2-chloro-9,1'-beta-2'-deoxy-2'-fluoro-D-arabinofuranosyladenine (CAFdA) to determine percent viability. CAFdA concentrations ranging from 0 to about 260 nM were used to treat each cell line in vitro."}, "T cell line Molt-4": {"test_system": "T cell line Molt-4", "test": "cells", "conditions": "Homo sapiens", "protocol": "as §5"}, "[7]": {"test_system": "monocyte-like cell line THP-1", "test": "cells", "conditions": "Homo sapiens", "protocol": "as §5"}, "[8]": {"test_system": "monocyte-like cell line U937", "test": "cells", "conditions": "Homo sapiens, U-937", "protocol": "as §5"}, "[9]": {"test_system": "monocyte-like cell line HL-60", "test": "cells", "conditions": "Homo sapiens", "protocol": "as §5"}, "adenosine deaminase": {"test_system": "adenosine deaminase", "conditions": "cited from earlier work"}, "[10]": {"test_system": "Adenocarcinoma 755 (Ad755)", "conditions": "cited from earlier work"}, "HIV [11]": {"test_system": "HIV", "test": "Inhibition of p24 (gag) production of HIV from MDM cells, 3-day assay", "type": "cell-based", "conditions": "0.1-100 μM"}, "HIV [12]": {"test_system": "HIV", "conditions": "cultured human T lymphoblasts; cited from earlier work"}, "HIV [13]": {"test_system": "HIV", "conditions": "cited from earlier work"}, "[14]": {"conditions": "pH value of 1 at 37 degrees C.; cited from earlier work"}, "[15]": {"conditions": "Homo sapiens, 120 h, read-out: ID50: concentration that produced 50 percent reduction in all numbers after five days"}}}
{"smiles": "COc1ccc2cc([C@H](C)C(=O)O)ccc2c1", "note": "[Naproxen, naproxen, reference compound]", "values": [{"measurement": "pathological examination of joints compared to untreated controls", "setting": "[1]", "result": "appeared to exacerbate the inflammation and tissue destruction"}]}
{"smiles": "C[C@@H]1C[C@H]2[C@@H]3CCC4=CC(=O)C=C[C@]4(C)[C@@]3(F)[C@@H](O)C[C@]2(C)[C@@]1(O)C(=O)CO", "note": "[dexamethasone, reference compound]", "values": [{"measurement": "swelling after ovalbumin challenge compared to saline control", "setting": "[2]; intraperitoneal", "result": "significant inhibition of swelling"}, {"measurement": "swelling after ovalbumin challenge compared to saline control", "setting": "[2]; oral", "result": "significant inhibition of swelling"}, {"measurement": "swelling compared to control saline treated animals", "setting": "[3]", "result": "effective at inhibiting swelling"}]}
{"smiles": "Nc1nc(Cl)nc2c1ncn2[C@@H]1O[C@H](CO)[C@@H](O)[C@@H]1F", "note": "[CAFdA, 2-chloro-9,1'-beta-2'-deoxy-2'-fluoro-D-arabinofuranosyladenine]", "values": [{"measurement": "ID50 ratio CAFdA / CdA", "setting": "CEM, wild type", "result": 3.1}, {"measurement": "IC50", "setting": "CEM, wild type; [15]", "result": 67, "unit": "nM"}, {"measurement": "ID50 ratio CAFdA / CdA", "setting": "[4]", "result": 2.1}, {"measurement": "ID50 ratio CAFdA / CdA", "setting": "DHL9, wild type", "result": 1.9}, {"measurement": "IC50", "setting": "DHL9, wild type; [15]", "result": 150, "unit": "nM"}, {"measurement": "ID50 ratio CAFdA / CdA", "setting": "[5]", "result": "15."}, {"measurement": "IC50", "setting": "[5]; [15]", "result": 6000, "unit": "nM"}, {"measurement": "IC50", "setting": "[6]; Homo sapiens, Lymphocyte, 120 h, read-out: ID50: concentration that produced 50 percent reduction in all numbers after five days", "result": 18, "unit": "nM"}, {"measurement": "ID50 ratio CAFdA / CdA", "setting": "[6]", "result": 1.9}, {"measurement": "IC50", "setting": "monocytes; Homo sapiens, Monocyte, 120 h, read-out: ID50: concentration that produced 50 percent reduction in all numbers after five days", "result": 47, "unit": "nM"}, {"measurement": "ID50 ratio CAFdA / CdA", "setting": "monocytes", "result": 2.1}, {"measurement": "swelling after ovalbumin challenge compared to saline control", "setting": "[2]; intraperitoneal", "result": "significant inhibition of swelling"}, {"measurement": "swelling after ovalbumin challenge compared to saline control", "setting": "[2]; oral", "result": "significant inhibition of swelling"}, {"measurement": "viability at 0.05 µM", "setting": "T cell line CEM", "result": "≤ 60", "unit": "%"}, {"measurement": "viability at 0.06 µM", "setting": "T cell line CEM", "result": "< 20", "unit": "%"}, {"measurement": "viability at 0.13 µM", "setting": "T cell line CEM", "result": "< 10", "unit": "%"}, {"measurement": "viability at 0.06 µM", "setting": "T cell line Molt-4", "result": "< 20", "unit": "%"}, {"measurement": "viability at 0.13 µM", "setting": "T cell line Molt-4", "result": "< 10", "unit": "%"}, {"measurement": "viability at 0.05 µM", "setting": "[7]", "result": "≤ 60", "unit": "%"}, {"measurement": "viability at 0.06 µM", "setting": "[7]", "result": "< 20", "unit": "%"}, {"measurement": "viability at 0.13 µM", "setting": "[7]", "result": "< 10", "unit": "%"}, {"measurement": "viability at 0.06 µM", "setting": "[8]", "result": "< 20", "unit": "%"}, {"measurement": "viability at 0.13 µM", "setting": "[8]", "result": "< 10", "unit": "%"}, {"measurement": "viability at 0.05 µM", "setting": "[9]", "result": "≤ 60", "unit": "%"}, {"measurement": "viability at 0.06 µM", "setting": "[9]", "result": "< 20", "unit": "%"}, {"measurement": "viability at 0.13 µM", "setting": "[9]", "result": "< 10", "unit": "%"}]}
{"smiles": "Nc1nc(F)nc2c1ncn2[C@@H]1O[C@H](CO)[C@@H](O)[C@H]1O", "note": "[2-fluoroadenosine]", "values": [{"measurement": "substrate behaviour toward adenosine deaminase", "setting": "adenosine deaminase", "result": "negligible activity"}, {"measurement": "tolerated dose", "setting": "[10]; C57 black mice implanted with Ad755", "result": "about 1 milligram per kilogram of body weight"}, {"measurement": "antitumor activity at the tolerated level", "setting": "[10]; against Ad755 as well as leukemia L1210 and the Erlich ascites tumor", "result": "inactive"}]}
{"smiles": "Cc1cn([C@H]2C[C@H](N=[N+]=[N-])[C@@H](CO)O2)c(=O)[nH]c1=O", "note": "[AZT, 3'-azido-3'-deoxythymidine]", "values": [{"measurement": "inhibition of p24 (gag) production", "setting": "HIV [11]", "result": "none of those compounds provided any inhibition"}, {"measurement": "replication of HIV", "setting": "HIV [12]", "result": "blocked the replication of HIV"}, {"measurement": "virus isolation rates from peripheral blood cells", "setting": "HIV [13]; clinical trials with AZT", "result": "no effect"}, {"measurement": "CD4 (T4) peripheral blood cell counts", "setting": "HIV [13]; patients with AIDS or AIDS-related complex", "result": "elevation of CD4 (T4) peripheral blood cell counts"}, {"measurement": "tolerability", "setting": "HIV [13]; patients with AIDS or AIDS-related disease complexes", "result": "well tolerated"}]}
{"smiles": "Nc1ncnc2c1ncn2[C@H]1CC[C@@H](CO)O1", "note": "[ddA, 2',3'-dideoxyadenosine]", "values": [{"measurement": "inhibition of p24 (gag) production", "setting": "HIV [11]", "result": "none of those compounds provided any inhibition"}, {"measurement": "substrate behaviour toward adenosine deaminase", "setting": "adenosine deaminase", "result": "known substrate for adenosine deaminase"}, {"measurement": "half-time", "setting": "[14]", "result": 35, "unit": "s"}]}
